Experimental findings from patent US20040248804A1, “Nasal administration of the LH-RH analog Leuprolide” (priority 2003, published 2004) are described below.

Series [1] can be described thus: Plasma leuprolide pharmacokinetics after IV, SQ and intranasal (IN) administration, five-way crossover volunteer trial, ELISA. Details: Absolute bioavailability, % of IV: dose or concentration left out as unconfirmed. The note with it: human, in vivo; for bioavailability / AUC / Cmax: female. From the text: In the following example, the inventors sought to compare the intranasal (“IN”) administration of leuprolide using the methods and compositions of the invention with prior art methods of administration (subcutaneous (“SQ”) and intravenous (“IV”)).

For series [2] the following is noted: human, in vivo.
Procedure: The design of the experiment was a five-way, crossover, randomized, partially double-blind, volunteer trial. Women were given leuprolide 1 mg IV and SQ, and IN as novel formulation at 1 mg (one spray), 2 mg (one spray) and 6 mg (three sprays), in random order. There was one dosing regimen on each of five separate days, with each day separated by at least two washout days. Blood for leuprolide measurement was collected via indwelling catheter at baseline and on eighteen occasions, up to twenty four hours after dosing. Plasma was separated and the leuprolide concentrations determined by enzyme linked immunosorbant assays (ELISA). Throughout the study subjects were monitored for adverse events and given nasal examinations.

Structures are written as SMILES.

Regarding `CC(=O)O.CCNC(=O)[C@@H]1CCCN1C(=O)[C@H](CCCNC(=N)N)NC(=O)[C@H](CC(C)C)NC(=O)[C@@H](CC(C)C)NC(=O)[C@H](Cc1ccc(O)cc1)NC(=O)[C@H](CO)NC(=O)[C@H](Cc1c[nH]c2ccccc12)NC(=O)[C@H](Cc1c[nH]cn1)NC(=O)[C@@H]1CCC(=O)N1` [leuprolide, 5-oxo-L-prolyl-L-histidyl-L-tryptophyl-L-seryl-L-tyrosyl-D-leucyl-L-leucyl-L-arginyl-N-ethyl-L-prolinamide acetate salt], the bioavailability in series [1] was determined as 95 ± 17%; in series [1] (inhaled or intranasal, 1 mg) it was 13 ± 7%; in series [1] (inhaled or intranasal, 2 mg), 14 ± 7%. The area under the curve (AUC) is 15 ± 8 ng·h/mL in series [1] (inhaled or intranasal, 1 mg); 31 ± 16 ng·h/mL in series [1] (inhaled or intranasal, 2 mg); 56 ± 28 ng·h/mL in series [1] (inhaled or intranasal, 6 mg); 120 ± 25 ng·h/mL in series [1] (iv, 1 mg); 111 ± 21 ng·h/mL in series [1] (sc, 1 mg). Also, the highest concentration (Cmax) in series [1] (inhaled or intranasal, 1 mg) is 5 ± 3 ng/mL; in series [1] (inhaled or intranasal, 2 mg) it was 11 ± 6 ng/mL; in series [1] (inhaled or intranasal, 6 mg) it was 22 ± 11 ng/mL; in series [1] (iv, 1 mg) it was 85 ± 33 ng/mL; in series [1] (sc, 1 mg), 35 ± 8 ng/mL. Moreover, the “Absolute bioavailability, % of IV” value was 8 ± 3 % of IV in series [1] and 100 % of IV in series [1] (iv). The Adverse events noted result in series [2] is “rhinorrhea and altered taste sensation”. In addition, the Serious adverse events entry in series [2] is “No serious adverse events were reported”.

As usually defined, the bioavailability is the share of a dose that reaches the circulation, judged against a reference dose that is usually intravenous. As usually defined, the AUC is the area under the concentration-time curve, a measure of exposure. In general, Cmax refers to the maximum level reached in the sampled fluid or tissue.
